Assay results as given in PMC9421655, “Novel Antagonist of the Type 2 Lysophosphatidic Acid Receptor (LPA2), UCM-14216, Ameliorates Spinal Cord Injury in Mice” (Journal of Medicinal Chemistry, 2022).
pKd: −log10 of the molar value. Entries after “also recorded” stand apart in the source; their conditions may differ.

Experiments:
[1] = target: T1, LPA2 (Homo sapiens, UniProt Q9HBW0); assay: Ca2+ mobilization assay, agonist activity at LPA2; type: cell-based; conditions: 10 μM compound
T1 construct: expressed in transfected cells
T1 sequence (Q9HBW0 whole entry, species assumed): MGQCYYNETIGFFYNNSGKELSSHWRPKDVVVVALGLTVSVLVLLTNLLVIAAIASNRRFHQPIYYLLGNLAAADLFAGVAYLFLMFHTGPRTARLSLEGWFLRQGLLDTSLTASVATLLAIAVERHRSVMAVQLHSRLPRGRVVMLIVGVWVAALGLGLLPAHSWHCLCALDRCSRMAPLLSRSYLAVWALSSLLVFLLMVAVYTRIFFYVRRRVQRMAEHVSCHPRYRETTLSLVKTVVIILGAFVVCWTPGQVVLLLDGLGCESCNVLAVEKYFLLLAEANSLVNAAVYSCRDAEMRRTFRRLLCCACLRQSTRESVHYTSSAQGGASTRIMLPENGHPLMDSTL
Procedure: The agonist activity at LPA2 receptors was determined at 10 μM concentration for all final compounds as previously described.[18]
Figure S1. Representative snapshots showing the lack of significant agonist activity of selected compounds. (A) 1; (B) 13; (C) 54; and (D) Ki16425. (E) Graphs show the agonist activity induced […]
stably expressing LPA2 receptor were plated on collagen-coated black-wall clear-bottom 96-well plates (Corning) at a density of 50000 cells/well and cultured overnight. The culture medium was then replaced with Fluo-4 NW dye loading solution containing 2.5 µM of probenecid and incubated […]
for 30 minutes at 37 °C followed by an additional 30 minutes at rt. Fluorescence changes were registered in a FluoStar Optima instrument (BMG Labtech) at 525 nm using an excitation wavelength of 494 nm. Each well was monitored for 240 s. 20 µL of the test compound from a 6x stock solution in assay buffer were added after 120 s of starting the measurement. Ca2+ transient increase was quantified by calculating the difference between maximum and baseline values for each […]
Graphs shown are representative of two to three independent experiments.

[2] = tested on: spinal cord injury in C57Bl/6J mice; assay: Spinal cord contusion injury model, locomotor recovery (Basso Mouse Scale); type: in vivo; conditions: C57Bl/6 mice
Excerpt: BMS is the gold standard test used for locomotor scoring after SCI in which two blinder observers score the mouse motor performance based on a nine-point scale.[28]

[3] = In vivo levels of compound in plasma, spinal cord and brain (HPLC-MS); conditions: 25 mg/kg i.p.
Procedure: At 1, 2, and 4 h after drug administration (n = 3 for each time and sample), mice were sacrificed and their brains, spinal cords, and blood were obtained. The brain and spinal cord were immediately frozen and kept at −80 °C until analysis. Blood was allowed to clot at rt for 30 min and centrifuged at 4 °C for 10 min at 16 000g. Serum was transferred to a clean polypropylene tube and stored at −80 °C until analysis. For analysis, a volume of cold acetonitrile was added to the serum. The sample was incubated in an ice bath for 10 min and centrifuged at 4 °C for 10 min at 16 000g. The resulting organic layer was filtered through a PTFE filter (0.2 μm, 13 mm diameter, Fisher Scientific) and 20 μL of the sample analyzed by LC-MS/MS at the UCM’s Mass Spectrometry CAI. Separation was performed using a Phenomenex Gemini 5 μm C18 110A 150 × 2 mm column (run time 8 min; flow 0.5 mL/min; gradient: 0.5 min 10% Phase B, 2 min 60% Phase B, 4.5–6 min 100% Phase B, 7–8 min 10% Phase B; Phase A: water with formic acid 0.1%; Phase B: acetonitrile). […] The mass spectrometer ion optics were set in the multiple reaction monitoring mode and the transition selected for quantification was 432.90 > 215.10 (CE: −30 V).

[4] = tested on: spinal cord injury in LPA2 null mice; assay: Spinal cord contusion injury model in LPA2 null mice (Basso Mouse Scale); type: in vivo; conditions: 25 mg/kg i.p. daily for 10 days
Procedure: Effect of i.p. injection of 54 (25 mg/kg) or vehicle on locomotor recovery in (A) C57bl/6 mice and (B) LPA2 deficient mice quantified using the 0 (absence of movement) to 9 (completely normal locomotor behavior) Basso Mouse Scale (BMS). Data are expressed as mean ± s.e.m. and correspond to seven animals per group in A and five animals per group in B. * p < 0.05 compared with vehicle-treated group (two-way repeated measures ANOVA with Bonferroni’s post hoc test for multiple comparisons).
All Surgical Procedures Were Approved by the Universitat Autònoma De Barcelona Animal Care Committee (CEEAH 4273) and followed the guidelines of the European Commission on Animal Care (EU Directive 2010/63/EU). Adult female C57Bl/6J mice (10–12 weeks old) and LPA2 null mice were anesthetized by intramuscular injection with a mixture of ketamine and xylazine (90:10 mg/kg). A laminectomy was performed at the 11th thoracic vertebrae and the exposed spinal cord was contused using the Infinite Horizon Impactor device (Precision Scientific Instrumentation) using a force of 60 kdynes. Only mice showing a spinal cord tissue displacement ranging between 450 and 550 μm were selected.

[5] = target: T2, LPA3 (Homo sapiens, UniProt Q9UBY5); assay: cell-based; conditions: maximum blockade of activation induced by 10 μM LPA (18:1) at 10 μM compound; N.E. = no effect at 10 μM
T2 sequence (Q9UBY5 1-353): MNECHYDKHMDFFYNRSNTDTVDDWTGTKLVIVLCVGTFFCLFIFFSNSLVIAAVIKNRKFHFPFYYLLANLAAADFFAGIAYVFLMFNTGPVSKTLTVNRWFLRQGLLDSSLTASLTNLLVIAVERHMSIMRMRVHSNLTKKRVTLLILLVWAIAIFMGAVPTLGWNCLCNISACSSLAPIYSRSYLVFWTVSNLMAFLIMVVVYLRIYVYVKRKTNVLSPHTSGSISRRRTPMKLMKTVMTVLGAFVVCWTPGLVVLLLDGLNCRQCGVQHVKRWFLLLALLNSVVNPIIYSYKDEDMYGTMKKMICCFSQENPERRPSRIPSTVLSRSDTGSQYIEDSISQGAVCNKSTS
Procedure: Cells stably expressing the corresponding LPA1–3 receptor were grown as described previously.[18] Changes in intracellular calcium levels were measured by using the fluorescent calcium sensitive dye Fluo-4 NW (Invitrogen). RH7777 cells or B103 cells were plated on poly-D-lysine or collagen coated, respectively, black-wall clear-bottom 96-well plates (Corning) at a density of 50 000 cells/well and cultured overnight. The culture medium was then replaced with 100 μL of Fluo-4 NW dye loading solution containing 2.5 μM of probenecid and incubated for 30 min at 37 °C followed by an additional 30 min at rt. […] Fluorescence changes were registered in a FluoStar Optima instrument (BMG Labtech) at 525 nm using an excitation wavelength of 494 nm. […] The data presented are from two to four independent experiments carried out in triplicate or quadruplicate. Dose–response curves were generated and IC50 values calculated by nonlinear regression analysis using Prism software version 5 (GraphPad Software Inc., San Diego, CA, USA).

[6] = target: T1, LPA2; assay: Free solution assay-compensated interferometric reader (FSA-CIR) binding, LPA2; conditions: receptor-containing nanovesicles, read-out: binding equilibrium constant (KD) at LPA2
Procedure: The assay was analyzed using a benchtop Compensated Interferometric Reader (CIR) that measured the light refractive index (ΔRI) change from binding-induced conformational and/or hydration changes produced by real time binding events in a sample (receptor containing nanovesicles plus compound) and compared to a nonbinding reference (RI matched buffer plus compound).[30] Finally, the interferometric signal from vector nanovesicles binding (nonspecific) to compound was subtracted from the LPA2,4–6 containing nanovesicles binding (total) to compound, to determine the specific binding interactions of the compounds to LPA2,4–6. The concentration-dependent change in RI (ΔRI) signal from the compounds to LPA2,4–6 or vector was fitted using the single site total vs nonspecific binding isotherm using GraphPad Prism. Specific KD values were determined by fitting the total minus nonspecific signal to a single site binding isotherm.
The detailed free solution assay method was described previously.[25],[26] All the compounds were dissolved in 100% DMSO, aliquoted, and frozen at −80 °C for 1 week. The compound dilution series was freshly prepared in 0.5% DMSO/PBS (pH 7.4) to keep the maximum compound in solution. […]

Cc1[nH]nc(-c2ccc(OCc3nnn[nH]3)cc2O)c1Oc1ccc(Cl)cc1Cl [Compound 54]
agonist activity at LPA2 receptor [1]: lack | BMS score ([2]; 25 mg/kg i.p. daily for 10 days from 1 h after lesion, day 50 postinjury, scale 0-9): 4.1 ± 0.3 | locomotor recovery after SCI (BMS) ([2]; 25 mg/kg i.p. daily for 10 days, significant from day 35 postinjury onward): significant improvement in locomotor recovery after SCI | time of maximum levels in spinal cord and brain [3]: one hour postadministration | locomotor recovery after SCI (BMS) [4]: did not induce any significant effect; also recorded: inactive | Emax (%) LPA3 [5]: inactive and N.E. | pKd [6]: 8.89
